For 28 compounds, IC50 results are on record in patent US7704995B2 (Exelixis, Inc., priority 2003, dated 2010).

The experiment concerns the target T1, Chk1 (Homo sapiens, UniProt O14757).
T1 construct: purchased Upstate Biotechnology
T1 sequence (O14757 1-476): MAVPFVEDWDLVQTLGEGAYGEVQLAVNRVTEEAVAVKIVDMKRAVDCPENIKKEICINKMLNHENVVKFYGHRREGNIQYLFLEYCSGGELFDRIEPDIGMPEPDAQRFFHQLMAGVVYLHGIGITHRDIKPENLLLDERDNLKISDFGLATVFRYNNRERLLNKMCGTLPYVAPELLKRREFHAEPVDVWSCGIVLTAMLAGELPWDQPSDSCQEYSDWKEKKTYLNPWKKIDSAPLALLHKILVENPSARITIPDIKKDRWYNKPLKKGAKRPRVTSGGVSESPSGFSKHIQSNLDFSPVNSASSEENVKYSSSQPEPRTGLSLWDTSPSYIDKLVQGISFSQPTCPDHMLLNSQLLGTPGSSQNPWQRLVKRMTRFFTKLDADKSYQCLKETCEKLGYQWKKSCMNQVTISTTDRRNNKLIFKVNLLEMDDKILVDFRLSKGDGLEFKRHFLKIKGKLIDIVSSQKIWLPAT
The experiment in a line: Chk1 kinase assay: incorporation of γ-33P ATP into immobilized myelin basic protein. As to conditions: Table 11, Chk1 only; class symbols A-D; read-out: Chk1 IC50. The class given is biochemical. Put shortly:
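Immobilized-MBP radiometric kinase assay, room temperature for 1 h; ATP 10 μM (Chk1, 10 nM enzyme) or 30 μM (Chk2, 20 nM enzyme) with 33P tracer. Values are IC50s, with Ki derived from them.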
As to `Nc1ncc(-c2cccc(C(=O)NC[C@H]3CCCN3)c2)nc1C(=O)N[C@H]1CCCNC1` [Example 927, 3-amino-N-[(3S)-piperidin-3-yl]-6-[3-({[(2R)-pyrrolidin-2-ylmethyl]amino}carbonyl)phenyl]pyrazine-2-carboxamide], the IC50 was less than 0.05 µM.
Regarding `Nc1ncc(-c2cccc(C(=O)N[C@H]3CCCN3)c2)nc1C(=O)N[C@H]1CCCNC1` [Example 928, 3-amino-N-[(3S)-piperidin-3-yl]-6-(3-{[(2S)-pyrrolidin-2-ylamino]carbonyl}phenyl)pyrazine-2-carboxamide], the IC50 is less than 0.05 µM.
`Nc1ncc(-c2cccc(C(=O)NC3CCCC3)c2)nc1C(=O)N[C@H]1CCCNC1` [Example 929, 3-amino-6-{3-[(cyclopentylamino)carbonyl]phenyl}-N-[(3S)-piperidin-3-yl]pyrazine-2-carboxamide]: the half-inhibitory concentration (IC50) lay in the range of 0.05 to 1 µM.
In the case of `Nc1ncc(-c2cccc(CNC(=O)Nc3ccc(OC(F)(F)F)cc3)c2)nc1C(=O)N[C@H]1CCCNC1` [Example 930, 3-amino-N-[(3S)-piperidin-3-yl]-6-[3-({[({4-[(trifluoromethyl)oxy]phenyl}amino)carbonyl]amino}methyl)phenyl]pyrazine-2-carboxamide], the IC50 is less than 0.05 µM.
With `Nc1ncc(-c2cccc(CNC(=O)Nc3ccc(C(F)(F)F)cc3)c2)nc1C(=O)N[C@H]1CCCNC1` [Example 931, 3-amino-N-[(3S)-piperidin-3-yl]-6-(3-{[({[4-(trifluoromethyl)phenyl]amino}carbonyl)amino]methyl}phenyl)pyrazine-2-carboxamide], the IC50 is less than 0.05 µM.
For the compound `COc1ccc(C(=O)NCc2cccc(-c3cnc(N)c(C(=O)N[C@H]4CCCNC4)n3)c2)cc1` [Example 932, 3-amino-6-{3-[({[4-(methyloxy)phenyl]carbonyl}amino)methyl]phenyl}-N-[(3S)-piperidin-3-yl]pyrazine-2-carboxamide], the IC50 was less than 0.05 µM.
Turning to `Nc1ncc(-c2cccc(CNC(=O)c3ccc(-c4ccccc4)cc3)c2)nc1C(=O)N[C@H]1CCCNC1` [Example 933, 3-amino-6-(3-{[(biphenyl-4-ylcarbonyl)amino]methyl}phenyl)-N-[(3S)-piperidin-3-yl]pyrazine-2-carboxamide], the IC50 was less than 0.05 µM.
Turning to `Nc1ncc(-c2cccc(CNC(=O)c3ccco3)c2)nc1C(=O)N[C@H]1CCCNC1` [Example 934, 3-amino-6-(3-{[(furan-2-ylcarbonyl)amino]methyl}phenyl)-N-[(3S)-piperidin-3-yl]pyrazine-2-carboxamide], the IC50 was less than 0.05 µM.
As for `Nc1ncc(-c2cccc(CNC(=O)Nc3ccc4c(c3)OCCO4)c2)nc1C(=O)N[C@H]1CCCNC1` [Example 935, 3-amino-6-[3-({[(2,3-dihydro-1,4-benzodioxin-6-ylamino)carbonyl]amino}methyl)phenyl]-N-[(3S)-piperidin-3-yl]pyrazine-2-carboxamide], the concentration for half-maximal inhibition (IC50) was less than 0.05 µM.
For the compound `Nc1ncc(-c2cccc(CNC(=O)c3ccc4c(c3)CCO4)c2)nc1C(=O)N[C@H]1CCCNC1` [Example 936, 3-amino-6-(3-{[(2,3-dihydro-1-benzofuran-5-ylcarbonyl)amino]methyl}phenyl)-N-[(3S)-piperidin-3-yl]pyrazine-2-carboxamide], the IC50 is less than 0.05 µM.
For `Nc1ncc(-c2cccc(CNS(=O)(=O)c3ccc4c(c3)OCCO4)c2)nc1C(=O)N[C@H]1CCCNC1` [Example 937, 3-amino-6-(3-{[(2,3-dihydro-1,4-benzodioxin-6-ylsulfonyl)amino]methyl}phenyl)-N-[(3S)-piperidin-3-yl]pyrazine-2-carboxamide], the 50% inhibitory concentration (IC50) is less than 0.05 µM.
For the compound `Nc1ncc(-c2cccc(CNC(=O)c3cccs3)c2)nc1C(=O)N[C@H]1CCCNC1` [Example 938, 3-amino-N-[(3S)-piperidin-3-yl]-6-(3-{[(2-thienylcarbonyl)amino]methyl}phenyl)pyrazine-2-carboxamide], the IC50 is less than 0.05 µM.
As for `Nc1ncc(-c2cccc(CNC(=O)C3COc4ccccc4O3)c2)nc1C(=O)N[C@H]1CCCNC1` (stereo partly drawn) [Example 939, 3-amino-6-(3-{[(2,3-dihydro-1,4-benzodioxin-2-ylcarbonyl)amino]methyl}phenyl)-N-[(3S)-piperidin-3-yl]pyrazine-2-carboxamide], the figure is less than 0.05 µM.
On to `Nc1ncc(-c2cccc(CNC(=O)c3ccccc3Cl)c2)nc1-c1nc([C@H]2CCCNC2)n[nH]1` [Example 940, N-{[3-(5-amino-6-{3-[(3S)-piperidin-3-yl]-1H-1,2,4-triazol-5-yl}pyrazin-2-yl)phenyl]methyl}-2-chlorobenzamide], for which the IC50 is less than 0.05 µM.
Consider `Nc1ncc(-c2cccc(CNC(=O)c3ccc(Cl)cc3)c2)nc1-c1nc([C@H]2CCCNC2)n[nH]1` [Example 941, N-{[3-(5-amino-6-{3-[(3S)-piperidin-3-yl]-1H-1,2,4-triazol-5-yl}pyrazin-2-yl)phenyl]methyl}-4-chlorobenzamide], for which the IC50 is less than 0.05 µM.
`Nc1ncc(-c2cccc(CNC(=O)c3ccc(I)cc3)c2)nc1-c1nc([C@H]2CCCNC2)n[nH]1` [Example 942, N-{[3-(5-amino-6-{3-[(3S)-piperidin-3-yl]-1H-1,2,4-triazol-5-yl}pyrazin-2-yl)phenyl]methyl}-4-iodobenzamide]: the IC50 is less than 0.05 µM.
As for `Nc1ncc(-c2cccc(CNC(=O)c3cc(F)cc(F)c3)c2)nc1-c1nc([C@H]2CCCNC2)n[nH]1` [Example 943, N-{[3-(5-amino-6-{3-[(3S)-piperidin-3-yl]-1H-1,2,4-triazol-5-yl}pyrazin-2-yl)phenyl]methyl}-3,5-difluorobenzamide], the IC50 is less than 0.05 µM.
As for `Nc1ncc(-c2cccc(CNC(=O)c3ccc(Br)cc3F)c2)nc1-c1nc([C@H]2CCCNC2)n[nH]1` [Example 944, N-{[3-(5-amino-6-{3-[(3S)-piperidin-3-yl]-1H-1,2,4-triazol-5-yl}pyrazin-2-yl)phenyl]methyl}-4-bromo-2-fluorobenzamide], the figure is less than 0.05 µM.
As for `Nc1ncc(-c2cccc(CNC(=O)c3ccc(Br)cc3Cl)c2)nc1-c1nc([C@H]2CCCNC2)n[nH]1` [Example 945, N-{[3-(5-amino-6-{3-[(3S)-piperidin-3-yl]-1H-1,2,4-triazol-5-yl}pyrazin-2-yl)phenyl]methyl}-4-bromo-2-chlorobenzamide], the IC50 is less than 0.05 µM.
`Nc1cc(-c2n[nH]c(-c3nc(-c4cccc(CN[C@H]5CCc6ccccc65)c4)cnc3N)n2)ccn1` [Example 946, 3-[3-(2-aminopyridin-4-yl)-1H-1,2,4-triazol-5-yl]-5-(3-{[(1S)-2,3-dihydro-1H-inden-1-ylamino]methyl}phenyl)pyrazin-2-amine]: the IC50 was less than 0.05 µM.
As for `Nc1ncc(-c2cccc(CN[C@H]3CCc4ccccc43)c2)nc1C(=O)NC1CCCCNC1` (stereo partly drawn) [Example 947, 3-amino-N-azepan-3-yl-6-(3-{[(1S)-2,3-dihydro-1H-inden-1-ylamino]methyl}phenyl)pyrazine-2-carboxamide], the IC50 is less than 0.05 µM.
As for `Nc1ncc(-c2cccc(CNC(=O)c3csc(-c4cccs4)n3)c2)nc1C(=O)N[C@H]1CCCNC1` [Example 948, 3-amino-N-[(3S)-piperidin-3-yl]-6-{3-[({[2-(2-thienyl)-1,3-thiazol-4-yl]carbonyl}amino)methyl]phenyl}pyrazine-2-carboxamide], the IC50 was less than 0.05 µM.
For the compound `Nc1ncc(-c2cccc(CNC(=O)c3cncc(-c4cccs4)c3)c2)nc1C(=O)N[C@H]1CCCNC1` [Example 949, 3-amino-N-[(3S)-piperidin-3-yl]-6-{3-[({[5-(2-thienyl)pyridin-3-yl]carbonyl}amino)methyl]phenyl}pyrazine-2-carboxamide], the IC50 was less than 0.05 µM.
As for `CC(C)(C)c1ccc(CNC(=O)c2cccc(-c3cnc(N)c(C(=O)N[C@H]4CCCNC4)n3)c2)cc1` [Example 950, 3-amino-6-{3-[({[4-(1,1-dimethylethyl)phenyl]methyl}amino)carbonyl]phenyl}-N-[(3S)-piperidin-3-yl]pyrazine-2-carboxamide], the figure is less than 0.05 µM; as for `Cc1cc(Cl)cc(Cl)c1CNC(=O)c1cccc(-c2cnc(N)c(C(=O)N[C@H]3CCCNC3)n2)c1` [Example 951, 3-amino-6-[3-({[(2,4-dichloro-6-methylphenyl)methyl]amino}carbonyl)phenyl]-N-[(3S)-piperidin-3-yl]pyrazine-2-carboxamide], less than 0.05 µM.
As for `Nc1ncc(-c2cccc(C(=O)NCc3cc(Cl)cc(Cl)c3)c2)nc1C(=O)N[C@H]1CCCNC1` [Example 952, 3-amino-6-[3-({[(3,5-dichlorophenyl)methyl]amino}carbonyl)phenyl]-N-[(3S)-piperidin-3-yl]pyrazine-2-carboxamide], the figure is less than 0.05 µM.
Take `Nc1ncc(-c2cccc(CNS(=O)(=O)c3cccs3)c2)nc1C(=O)N[C@H]1CCCNC1` [Example 953, 3-amino-N-[(3S)-piperidin-3-yl]-6-(3-{[(2-thienylsulfonyl)amino]methyl}phenyl)pyrazine-2-carboxamide]: the half-maximal inhibitory concentration (IC50) is less than 0.05 µM.
In the case of `Nc1ncc(-c2cccc(CNS(=O)(=O)c3ccsc3)c2)nc1C(=O)N[C@H]1CCCNC1` [Example 954, 3-amino-N-[(3S)-piperidin-3-yl]-6-(3-{[(3-thienylsulfonyl)amino]methyl}phenyl)pyrazine-2-carboxamide], the concentration for half-maximal inhibition (IC50) is less than 0.05 µM.
